Type in all cases: in vivo
In one assay the test system is Culex pipiens pallens. Nature of the assay: Knockdown spray test on adult Culex pipiens pallens (Test Example 4). As to conditions: topical, 0.25 h, active ingredient 0.1% w/v, 0.5 ml sprayed, within 15 minutes, read-out: knockdown rate of the test insects within 15 minutes. As to the method:
Ten adult Culex pipiens pallens were released in a polyethylene cup (bottom diameter: 10.6 cm), and the cup was covered with a 16-mesh nylon gauze. The polyethylene cup was placed on the bottom of a test chamber (bottom: 46 cm×46 cm, height: 70 cm). From a height of 30 cm above the upper surface of the polyethylene cup, 0.5 ml of the test drug solution was sprayed using a spray gun (a spraying pressure of 0.4 kg/cm^2). Immediately after spraying, the cup was taken out from the test chamber, and after 2 minutes, 5 minutes and 15 minutes, the number of knocked-down insects was counted to obtain a knockdown rate. The knockdown rate was calculated by the following equation.
(§1) Knockdown Rate (%)=(Number of Knocked-down Insects/Number of Tested Insects)×100

The subject of the next assay is Blattella germanica. Briefly: Knockdown spray test on Blattella germanica, 0.1% w/v oil formulation (Test Example 2). As to conditions: topical, 0.25 h, active ingredient 0.1% w/v, 1.5 ml sprayed, within 15 minutes, read-out: knockdown rate of the test insects within 15 minutes. As to the method: Ten Blattella germanica (5 males and 5 females) were released in a test container (8.75 cm in diameter, 7.5 cm in height, and the bottom made of 16 mesh metallic wire) with the inner wall on which butter was applied, and the container was placed on the bottom of a test chamber (bottom: 46 cm×46 cm, height: 70 cm). From a height of 60 cm above the upper surface of the container, 1.5 ml of the test drug solution was sprayed using a spray gun (a spraying pressure of 0.42 kg/cm^2). Thirty seconds after spraying, the container was taken out from the test chamber, and after 2 minutes, 5 minutes and 15 minutes, the number of knocked-down insects was counted to obtain a knockdown rate. The knockdown rate was calculated by the following equation.
as §1

In a further assay the test system is Musca domestica. Nature of the assay: Filter paper/sucrose bait death rate test on Musca domestica (Test Example 5). Conditions: female imagoes of Musca domestica, 0.7 ml on filter paper, after 24 hours. As to the method: A filter paper having a diameter of 5.5 cm was spread on the bottom of a polyethylene cup having the same diameter and 0.7 ml of the test drug solution was added dropwise onto the filter paper, and 30 mg of sucrose was uniformly placed as bait.
Into the polyethylene cup, 10 female imagoes of Musca domestica were released, and the cup was sealed with a lid. After 24 hours, the life and death of Musca domestica was examined, and the death rate was calculated. The death rate was calculated by the following equation.
Death rate (%)=(Number of dead insects/Number of tested insects)×100

In the case of `O=C(NCC1CCOC1)c1cc(COc2ccc(Cl)cc2)on1` (stereo not drawn) [(180)], the pest or weed control at 0.1 % strength in the assay on Culex pipiens pallens and with Blattella germanica was no less than 80% each time.
Turning to `O=C(NCC1CCOC1)c1cc(COc2ccc(F)cc2)on1` (stereo not drawn) [(184)], the pest or weed control at 0.1 % strength in the assay on Culex pipiens pallens and in the assay on Blattella germanica was no less than 80% each time.
With `O=C(NCC1CCOC1)c1cc(COc2ccc(Br)cc2)on1` (stereo not drawn) [(186), N-(tetrahydrofuran-3-ylmethyl)-5-(4-bromophenoxymethyl)isoxazole-3-carboxamide], the pest or weed control at 0.1 % strength in the assay with Culex pipiens pallens and in the assay with Blattella germanica was no less than 80% throughout.
On to `CC(O)c1c(C(=O)NCC2CCOC2)noc1COCc1ccc2ccccc2c1` (stereo not drawn) [(210), N-(tetrahydrofuran-3-ylmethyl)-1-hydroxyethyl-5-(2-naphthylmethoxymethyl)isoxazole-3-carboxamide], for which the pest or weed control at 0.1 % strength with Culex pipiens pallens and with Blattella germanica was no less than 80% in each case.
Regarding `O=C(NCC1CCOC1)c1noc(COCc2ccc3ccccc3c2)c1CF` (stereo not drawn) [(211), N-(tetrahydrofuran-3-ylmethyl)-4-fluoromethyl-5-(2-naphthylmethoxymethyl)isoxazole-3-carboxamide], the pest or weed control at 0.1 % strength in the assay on Culex pipiens pallens and with Blattella germanica was no less than 80% in each case.
Turning to `Cc1c(C(=O)NCC2CCOC2)noc1COCc1cccc(F)c1` (stereo not drawn) [(217), N-(tetrahydrofuran-3-ylmethyl)-5-(3-fluorobenzyloxymethyl)-4-methylisoxazole-3-carboxamide], the pest or weed control at 0.1 % strength with Culex pipiens pallens and in the assay with Blattella germanica was no less than 80% in each case.
For the compound `Cc1c(C(=O)NCC2CCOC2)noc1CCCc1ccccc1` (stereo not drawn) [(221), N-(tetrahydrofuran-3-ylmethyl)-4-methyl-5-(3-phenylpropyl)isoxazole-3-carboxamide], the pest or weed control at 0.1 % strength with Culex pipiens pallens and in the assay with Blattella germanica was no less than 80% throughout.
Regarding `Cc1ccccc1COCc1cc(C(=O)NCC2CCOC2)no1` (stereo not drawn) [(226)], the pest or weed control at 0.1 % strength with Culex pipiens pallens and in the assay on Blattella germanica was no less than 80% each time.
Regarding `O=C(NCC1CCOC1)c1cc(CCCc2ccc3ccccc3c2)on1` (stereo not drawn) [(228), N-(tetrahydrofuran-3-ylmethyl)-5-[3-(2-naphthyl)propyl]isoxazole-3-carboxamide], the pest or weed control at 0.1 % strength in the assay with Culex pipiens pallens and with Blattella germanica was no less than 80% in each case.
For the compound `O=C(NCC1COCCO1)c1cc(CCCc2ccc3ccccc3c2)on1` (stereo not drawn) [(230), N-(1,4-dioxan-2-ylmethyl)-5-[3-(2-naphthyl)propyl]isoxazole-3-carboxamide], the pest or weed control at 0.1 % strength in the assay with Culex pipiens pallens and in the assay on Blattella germanica was no less than 80% each time.
With `O=C(NCC1CCOC1)c1cc(COc2ccc3c(c2)CCCC3)on1` (stereo not drawn) [(239), N-(tetrahydrofuran-3-ylmethyl)-5-(5,6,7,8-tetrahydronaphthalen-2-yl)oxymethylisoxazole-3-carboxamide], the pest or weed control at 0.1 % strength in the assay with Culex pipiens pallens and in the assay with Blattella germanica was no less than 80% each time.
In the case of `O=C(NCC1CCOC1)c1cc(CSCc2ccc3ccccc3c2)on1` (stereo not drawn) [(253)], the pest or weed control at 0.1 % strength in the assay on Culex pipiens pallens and with Blattella germanica was no less than 80% throughout.
With `O=C(NCC1CCOC1)c1noc(COCc2ccc3ccccc3c2)c1F` (stereo not drawn) [(255), N-(tetrahydrofuran-3-ylmethyl)-5-(2-naphthylmethoxymethyl)-4-fluoroisoxazole-3-carboxamide], the pest or weed control at 0.1 % strength in the assay on Culex pipiens pallens and with Blattella germanica was no less than 80% in each case.
Consider `O=C(NCC1CCOC1)c1cc(COCc2cc3ccccc3cc2F)on1` (stereo not drawn) [(257), N-(tetrahydrofuran-3-ylmethyl)-5-(3-fluoro-2-naphthylmethoxymethyl)isoxazole-3-carboxamide], for which the pest or weed control at 0.1 % strength in the assay with Culex pipiens pallens and with Blattella germanica was no less than 80% each time.
Take `O=C(NCC1CCOC1)c1cc(COCc2ccc(F)c(Cl)c2)on1` (stereo not drawn) [(261), N-(tetrahydrofuran-3-ylmethyl)-5-(3-chloro-4-fluorobenzyloxymethyl)isoxazole-3-carboxamide]: the pest or weed control at 0.1 % strength in the assay on Culex pipiens pallens and in the assay with Blattella germanica was no less than 80% each time.
For `O=C(NCC1CCOC1)c1cc(COCc2ccc(F)c(F)c2)on1` (stereo not drawn) [(263), N-(tetrahydrofuran-3-ylmethyl)-5-(3,4-difluorobenzyloxymethyl)isoxazole-3-carboxamide], the pest or weed control at 0.1 % strength with Culex pipiens pallens and in the assay with Blattella germanica was no less than 80% throughout.
With `O=C(NCC1CCOC1)c1cc(COCc2ccccc2Br)on1` (stereo not drawn) [(265), N-(tetrahydrofuran-3-ylmethyl)-5-(2-bromobenzyloxymethyl)isoxazole-3-carboxamide], the pest or weed control at 0.1 % strength with Culex pipiens pallens and with Blattella germanica was no less than 80% each time.
As to `Cc1cc(C)cc(COCc2cc(C(=O)NCC3CCOC3)no2)c1` (stereo not drawn) [(271), N-(tetrahydrofuran-3-ylmethyl)-5-(3,5-dimethylbenzyloxymethyl)isoxazole-3-carboxamide], the pest or weed control at 500 ppm in the assay on Musca domestica is no less than 90%. Moreover, the pest or weed control at 0.1 % strength with Culex pipiens pallens is no less than 80%.
Take `O=C(NCC1CCOC1)c1cc(COCc2c(F)cccc2F)on1` (stereo not drawn) [(275), N-(tetrahydrofuran-3-ylmethyl)-5-(2,6-difluorobenzyloxymethyl)isoxazole-3-carboxamide]: the pest or weed control at 500 ppm in the assay with Musca domestica was no less than 90%. The pest or weed control at 0.1 % strength in the assay on Culex pipiens pallens was no less than 80%.
Take `O=C(NCC1CCOC1)c1cc(COCc2ccc(Cl)c(F)c2)on1` (stereo not drawn) [(276), N-(tetrahydrofuran-3-ylmethyl)-5-(4-chloro-3-fluorobenzyloxymethyl)isoxazole-3-carboxamide]: the pest or weed control at 0.1 % strength in the assay with Culex pipiens pallens and in the assay with Blattella germanica was no less than 80% each time.
Take `COc1ccc(COCc2cc(C(=O)NCC3CCOC3)no2)cc1F` (stereo not drawn) [(277), N-(tetrahydrofuran-3-ylmethyl)-5-(3-fluoro-4-methoxybenzyloxymethyl)isoxazole-3-carboxamide]: the pest or weed control at 0.1 % strength in the assay with Culex pipiens pallens and in the assay with Blattella germanica was no less than 80% throughout.
Take `O=C(NCC1CCOC1)c1noc(COCc2ccccc2F)c1F` (stereo not drawn) [(298), N-(tetrahydrofuran-3-ylmethyl)-5-(2-fluorobenzyloxymethyl)-4-fluoroisoxazole-3-carboxamide]: the pest or weed control at 0.1 % strength with Culex pipiens pallens and with Blattella germanica was no less than 80% throughout.
For `O=C(NCC1CCOC1)c1cc(Cc2cccs2)on1` (stereo not drawn) [(308), N-(tetrahydrofuran-3-ylmethyl)-5-(2-thienylmethyl)isoxazole-3-carboxamide], the pest or weed control at 500 ppm in the assay on Musca domestica was no less than 90%. The pest or weed control at 0.1 % strength in the assay with Culex pipiens pallens is no less than 80%.
As to `COc1cccc(Cc2cc(C(=O)NCC3CCOC3)no2)c1` (stereo not drawn) [(312), N-(tetrahydrofuran-3-ylmethyl)-5-(3-methoxybenzyl)isoxazole-3-carboxamide], the pest or weed control at 0.1 % strength in the assay with Culex pipiens pallens and in the assay on Blattella germanica was no less than 80% in each case.
As for `COc1ccccc1Cc1cc(C(=O)NCC2CCOC2)no1` (stereo not drawn) [(317), N-(tetrahydrofuran-3-ylmethyl)-5-(2-methoxybenzyl)isoxazole-3-carboxamide], the pest or weed control at 0.1 % strength in the assay with Culex pipiens pallens and in the assay on Blattella germanica was no less than 80% throughout.
For `O=C(NCC1CCOC1)c1cc(Cc2cccc(-c3ccccc3)c2)on1` (stereo not drawn) [(327)], the pest or weed control at 0.1 % strength in the assay with Culex pipiens pallens and with Blattella germanica was no less than 80% each time.
Consider `Cc1cccc(Cc2cc(C(=O)NCC3CCOC3)no2)c1` (stereo not drawn) [(328), N-(tetrahydrofuran-3-ylmethyl)-5-(3-methylbenzyl)isoxazole-3-carboxamide], for which the pest or weed control at 0.1 % strength in the assay with Culex pipiens pallens and in the assay on Blattella germanica was no less than 80% throughout.
In the case of `Cc1ccc(Cc2cc(C(=O)NCC3CCOC3)no2)cc1` (stereo not drawn) [(329), N-(tetrahydrofuran-3-ylmethyl)-5-(4-methylbenzyl)isoxazole-3-carboxamide], the pest or weed control at 0.1 % strength with Culex pipiens pallens and with Blattella germanica was no less than 80% each time.
Consider `O=C(NCC1CCOC1)c1cc(COCc2ccc3sccc3c2)on1` (stereo not drawn) [(336), N-(tetrahydrofuran-3-ylmethyl)-5-[(5-benzothiophenyl)methoxymethyl]isoxazole-3-carboxamide], for which the pest or weed control at 0.1 % strength with Culex pipiens pallens and in the assay on Blattella germanica was no less than 80% throughout.
For `CCc1c(C(=O)NCC2CCOC2)noc1COCc1ccc2ccccc2c1` (stereo not drawn) [(338), N-(tetrahydrofuran-3-ylmethyl)-5-(2-naphthylmethoxymethyl)-4-ethylisoxazole-3-carboxamide], the pest or weed control at 0.1 % strength in the assay on Culex pipiens pallens and with Blattella germanica was no less than 80% each time.

These data come from patent publication US20150344466A1 (SUMITOMO CHEMICAL COMPANY, LIMITED, priority 2013, published 2015).
